In the supplement of paper PMC4977894:
± gives the standard deviation of the averaged measurements.

How the values were obtained:
[1] = system: Homo sapiens (human subject panel, olfactory perception); assay: perceived odor familiarity rating (rating 0-100); higher = more familiar
How it was run: (§1)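 Fifty-five healthy human subjects aged 18–50 took part, and the six lowest performers were excluded. Each molecule was diluted in paraffin oil at high and low concentrations, and 1 mL was sniffed in randomized order over ten visits of 100 stimuli each. Subjects who reported smelling a stimulus rated it on a computerized slider that started at 50 and had to be moved, with positions converted to a 0–100 scale. The familiarity, intensity and pleasantness values are averages across subjects.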

[2] = system: Homo sapiens (human subject panel, olfactory perception); assay: perceived odor pleasantness rating (rating 0-100); higher = more pleasant
How it was run: as §1

[3] = system: Homo sapiens (human subject panel, olfactory perception); assay: perceived odor intensity rating (rating 0-100); higher = stronger perceived smell
How it was run: as §1

[4] = odor dilution in paraffin oil: 1/1,000
[5] = odor dilution in paraffin oil: 1/100,000
[6] = odor dilution in paraffin oil: 1/10
[7] = odor dilution in paraffin oil: 1/10,000,000

| Structure (SMILES) | perceived odor familiarity rating [1, 4] | perceived odor familiarity rating [1, 5] | perceived odor pleasantness rating [2, 4] | perceived odor pleasantness rating [2, 5] | perceived odor intensity rating [3, 4] | perceived odor intensity rating [3, 5] | perceived odor familiarity rating [1, 6] | perceived odor pleasantness rating [2, 6] | perceived odor intensity rating [3, 6] | perceived odor familiarity rating [1, 7] | perceived odor pleasantness rating [2, 7] | perceived odor intensity rating [3, 7] |
| --- | --- | --- | --- | --- | --- | --- | --- | --- | --- | --- | --- | --- |
| CC(=O)C(C)=O [2,3-butanedione] | 49.3 ± 34 | 50 ± 29 | 24.5 ± 19 | 35.9 ± 22 | 81.7 ± 19 | 55.8 ± 28 |  |  |  |  |  |  |
| COC(=O)c1cccnc1 [Methyl nicotinate] | 43.5 ± 30 |  | 38.3 ± 24 |  | 63 ± 26 |  | 37.2 ± 30 | 38.4 ± 29 | 71.6 ± 28 |  |  |  |
| CC(O)C(C)S (centres undefined) [2-Mercapto-3-butanol] |  | 41.6 ± 32 |  | 40 ± 26 |  | 45.9 ± 32 |  |  |  | 37 ± 26 | 50.2 ± 23 | 30.2 ± 30 |
| CCCC(C)C(=O)OCC (centres undefined) [Ethyl 2-methylpentanoate (replicate)] | 59.6 ± 31 | 52 ± 27 | 72.2 ± 18 | 64.9 ± 20 | 52.1 ± 29 | 50.5 ± 29 |  |  |  |  |  |  |
| CCCCCCCC(=O)OCC [Ethyl octanoate] | 52.7 ± 33 | 52 ± 29 | 66.2 ± 22 | 61.9 ± 22 | 54.7 ± 29 | 46.7 ± 31 |  |  |  |  |  |  |
| O=C(OCc1ccccc1)c1ccccc1O [Benzyl salicylate] | 38 ± 28 |  | 53.6 ± 24 |  | 28.4 ± 28 |  | 40.7 ± 29 | 57.6 ± 23 | 48.6 ± 30 |  |  |  |
| OCCCc1ccccc1 [3-Phenyl-1-propanol] | 49.5 ± 34 | 36.7 ± 27 | 48.6 ± 33 | 45.4 ± 25 | 63.3 ± 30 | 34.5 ± 32 |  |  |  |  |  |  |
| CC(C)COC(=O)/C=C/c1ccccc1 [Isobutyl cinnamate] | 38.6 ± 30 |  | 54 ± 27 |  | 49.3 ± 33 |  | 45.6 ± 31 | 41.3 ± 30 | 70.4 ± 24 |  |  |  |
| C[C@H](N)C(=O)O [L-Alanine] | 23.8 ± 22 |  | 45.9 ± 20 |  | 14.7 ± 22 |  | 40.9 ± 32 | 55.7 ± 28 | 31.9 ± 30 |  |  |  |
| CCCC(=O)SC [Methyl thiobutyrate] | 50.2 ± 36 | 45.1 ± 32 | 4.96 ± 12 | 16.2 ± 22 | 92.4 ± 14 | 69.8 ± 26 |  |  |  |  |  |  |
| N=C(N)NCCC[C@H](N)C(=O)O [L-Arginine] | 30.3 ± 24 |  | 44.6 ± 19 |  | 20.4 ± 22 |  | 29.4 ± 33 | 47.9 ± 24 | 19.2 ± 25 |  |  |  |
| CC(C)C(=O)O [Isobutyric acid] |  | 43.5 ± 31 |  | 25 ± 20 |  | 56.8 ± 30 |  |  |  | 39.6 ± 26 | 49 ± 27 | 22.6 ± 28 |
| CCCCCOC(=O)CCC [Amyl butyrate] | 51.7 ± 32 | 32.9 ± 32 | 55.8 ± 28 | 47.7 ± 30 | 59.2 ± 26 | 20.8 ± 25 |  |  |  |  |  |  |
| C[C@@]12C=CC[C@H]1[C@@H]1CCC3=CC(=O)CC[C@]3(C)[C@H]1CC2 [Androstadienone] | 45.8 ± 34 | 31.6 ± 30 | 29.2 ± 24 | 38.6 ± 27 | 63.1 ± 32 | 38.2 ± 35 |  |  |  |  |  |  |
| C=CCOC(=O)CCC1CCCCC1 [Allyl cyclohexanepropionate] | 58.7 ± 29 | 32.5 ± 27 | 60.9 ± 23 | 54.7 ± 24 | 57.9 ± 25 | 30.6 ± 30 |  |  |  |  |  |  |
| CSc1ccoc1C [2-Methyl-3-methylthiofuran] |  | 48.1 ± 28 |  | 24.5 ± 19 |  | 66.8 ± 24 |  |  |  | 33 ± 24 | 39.4 ± 20 | 31.4 ± 28 |
| CCCCCCOC(=O)CC [Hexyl propionate] | 43.1 ± 28 | 40.8 ± 33 | 52.1 ± 24 | 38.5 ± 22 | 59 ± 32 | 27.6 ± 32 |  |  |  |  |  |  |

| Structure (SMILES) | perceived odor familiarity rating [1, 4] | perceived odor familiarity rating [1, 5] | perceived odor pleasantness rating [2, 4] | perceived odor pleasantness rating [2, 5] | perceived odor intensity rating [3, 4] | perceived odor intensity rating [3, 5] | perceived odor familiarity rating [1, 6] | perceived odor pleasantness rating [2, 6] | perceived odor intensity rating [3, 6] | perceived odor familiarity rating [1, 7] | perceived odor pleasantness rating [2, 7] | perceived odor intensity rating [3, 7] |
| --- | --- | --- | --- | --- | --- | --- | --- | --- | --- | --- | --- | --- |
| CC(=O)CCC=C(C)C [6-Methyl-5-hepten-2-one] | 51.9 ± 31 | 31.9 ± 29 | 48.6 ± 30 | 52.6 ± 23 | 70.7 ± 23 | 22.4 ± 25 |  |  |  |  |  |  |
| CC(=O)OC1CC2CCC1(C)C2(C)C (centres undefined) [Bornyl acetate] | 44.2 ± 29 | 28.9 ± 26 | 45.2 ± 22 | 45.7 ± 24 | 36.1 ± 30 | 29.9 ± 28 |  |  |  |  |  |  |
| c1ccc(Oc2ccccc2)cc1 [Diphenyl ether] | 40.4 ± 28 | 42.4 ± 29 | 49.9 ± 26 | 46.5 ± 22 | 55.1 ± 29 | 27 ± 28 |  |  |  |  |  |  |
| SCCc1cnccn1 [Pyrazineethanethiol] |  | 37.2 ± 33 |  | 45.4 ± 26 |  | 33.8 ± 38 |  |  |  | 29.8 ± 25 | 49.2 ± 20 | 23.6 ± 22 |
| CC1CC[C@H](C(C)C)[C@@H](O)C1 (some centres undefined) [( + )-menthol] | 51.8 ± 29 |  | 52 ± 24 |  | 51 ± 31 |  | 73.7 ± 26 | 55.3 ± 28 | 83.4 ± 14 |  |  |  |
| O=C(O)CCCCC(=O)O [Adipic acid] | 34 ± 29 |  | 38.5 ± 18 |  | 14 ± 16 |  | 43.5 ± 27 | 52.7 ± 24 | 35.7 ± 28 |  |  |  |
| CCCCC(C)=O [2-hexanone] | 57.6 ± 32 | 31.4 ± 27 | 42.2 ± 24 | 48.6 ± 23 | 71.4 ± 25 | 25.5 ± 31 |  |  |  |  |  |  |
| CC1(C)C(=O)[C@@]2(C)CC[C@H]1C2 [l-fenchone] | 58.3 ± 31 | 33.1 ± 32 | 44.6 ± 28 | 49.3 ± 26 | 64.5 ± 31 | 9.45 ± 15 |  |  |  |  |  |  |
| Cc1cc(C(C)(C)C)c(O)c(C(C)(C)C)c1 [Butylated hydroxytoluene] | 27.7 ± 29 |  | 51.4 ± 22 |  | 16.9 ± 24 |  | 43.4 ± 29 | 51.9 ± 24 | 40.3 ± 31 |  |  |  |
| CC(=O)c1cc2c(cc1C)C(C)(C)C(C)CC2(C)C (centres undefined) [6-Acetyl-1,1,2,4,4,7-Hexamethyltetralin] | 49.1 ± 31 |  | 67.7 ± 21 |  | 29.8 ± 28 |  | 57.3 ± 30 | 67.4 ± 24 | 51.7 ± 28 |  |  |  |
| CCOc1ccc(C=O)cc1 [4-Ethoxybenzaldehyde] | 58.5 ± 30 | 47.2 ± 31 | 67.4 ± 26 | 66.4 ± 24 | 65.2 ± 25 | 34.2 ± 28 |  |  |  |  |  |  |
| CCCCC=O [valeraldehyde] |  | 43.7 ± 26 |  | 43 ± 25 |  | 41.3 ± 30 |  |  |  | 38.9 ± 28 | 49.8 ± 26 | 18.8 ± 22 |
| C=CCOC(=O)Cc1ccccc1 [Allyl phenylacetate] |  | 44 ± 25 |  | 33 ± 27 |  | 33.8 ± 29 |  |  |  | 29.4 ± 16 | 49.8 ± 28 | 25.7 ± 25 |
| CC(C)CCC(=O)O [4-Methylvaleric acid] |  | 41.8 ± 30 |  | 20.8 ± 22 |  | 58.6 ± 30 |  |  |  | 32.5 ± 25 | 43.3 ± 20 | 30.9 ± 30 |
| OCc1ccccc1 [benzyl alcohol] | 40.2 ± 25 |  | 52.4 ± 20 |  | 45.4 ± 26 |  | 55 ± 29 | 46.7 ± 25 | 74.2 ± 18 |  |  |  |
| CC(C)CCCC(C)CCO (centres undefined) [3,7-Dimethyl-1-octanol] | 57.6 ± 30 | 40.5 ± 26 | 40.2 ± 28 | 43.8 ± 19 | 74.7 ± 22 | 24.2 ± 26 |  |  |  |  |  |  |
| CCCCCCC1CCC(=O)O1 (centres undefined) [gamma-decalactone] | 51.5 ± 32 | 46.4 ± 30 | 64.9 ± 27 | 61.4 ± 20 | 54 ± 28 | 33.2 ± 28 |  |  |  |  |  |  |
